What all share (assay): Bliss interaction score (quartile over a dose matrix) (fitness difference); higher = more antagonism (negative = synergy)
Assay [1] has as its system B. subtilis 168. The gist of the method: (§1)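 Fitness was OD595 at entry into stationary phase divided by the plate's robust no-drug mean and capped at 1; single-drug fitness was inferred from combination data. The Bliss score is observed minus expected (product) fitness, summarised by quartiles over technical, biological and donor/recipient replicates.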
Assay [2] has as its system S. aureus DSM 20231. The method, boiled down: as §1
Assay [3] relates to S. aureus Newman. The gist of the method: as §1
Assay [4] concerns S. pneumoniae D39V. The gist of the method: as §1

These results are taken from the supplement of paper PMC10627819.
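Also: first quartile when negative (synergy) and third quartile when positive (antagonism).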

On to `CC(=O)OC[C@H]1O[C@@H]([S-])[C@H](OC(C)=O)[C@@H](OC(C)=O)[C@@H]1OC(C)=O.CCP(CC)CC.[Au+]` [Auranofin] + CN(N=O)C(=O)N[C@@H](C=O)[C@@H](O)[C@H](O)[C@H](O)CO [Streptozotocin], for which the Bliss interaction score in assay [1] was 0.0355; in assay [2] it was -0.0317; in assay [3], 0.0723; in assay [4], 0.105.

Turning to `CC(=O)OC[C@H]1O[C@@H]([S-])[C@H](OC(C)=O)[C@@H](OC(C)=O)[C@@H]1OC(C)=O.CCP(CC)CC.[Au+]` [Auranofin] + CN[C@@H]1[C@H](O)[C@H](NC)[C@H]2O[C@@]3(O)C(=O)C[C@@H](C)O[C@H]3O[C@@H]2[C@H]1O [Spectinomycin], the Bliss interaction score in assay [1] is 0.0604; in assay [2], 0.0611; in assay [3] it was 0.0532; in assay [4] it was -0.162.

As for `CC(=O)OC[C@H]1O[C@@H]([S-])[C@H](OC(C)=O)[C@@H](OC(C)=O)[C@@H]1OC(C)=O.CCP(CC)CC.[Au+]` [Auranofin] + CN[C@@H]1[C@H](O[C@H]2[C@H](O[C@H]3[C@H](O)[C@@H](O)[C@H](N=C(N)N)[C@@H](O)[C@@H]3N=C(N)N)O[C@@H](C)[C@]2(O)C=O)O[C@@H](CO)[C@H](O)[C@H]1O [Streptomycin], the Bliss interaction score in assay [1] was 0.0215; in assay [2] it was -0.0362; in assay [3] it was -0.0862; in assay [4], -0.163.

As to `CC(=O)OC[C@H]1O[C@@H]([S-])[C@H](OC(C)=O)[C@@H](OC(C)=O)[C@@H]1OC(C)=O.CCP(CC)CC.[Au+]` [Auranofin] + CN[C@H](CC(C)C)C(=O)N[C@H]1C(=O)N[C@@H](CC(N)=O)C(=O)N[C@H]2C(=O)N[C@H]3C(=O)N[C@H](C(=O)N[C@H](C(=O)O)c4cc(O)cc(O)c4-c4cc3ccc4O)[C@H](O)c3ccc(c(Cl)c3)Oc3cc2cc(c3O[C@@H]2O[C@H](CO)[C@@H](O)[C@H](O)[C@H]2O[C@H]2C[C@](C)(N)[C@H](O)[C@H](C)O2)Oc2ccc(cc2Cl)[C@H]1O [Vancomycin], the Bliss interaction score is 0.0381 in assay [1], -0.0311 in assay [2], 0.0325 in assay [3] and 0.0929 in assay [4].

In the case of `CC(=O)OC[C@H]1O[C@@H]([S-])[C@H](OC(C)=O)[C@@H](OC(C)=O)[C@@H]1OC(C)=O.CCP(CC)CC.[Au+]` [Auranofin] + CN[C@H](CC(C)C)C(=O)N[C@H]1C(=O)N[C@@H](CC(N)=O)C(=O)N[C@H]2C(=O)N[C@H]3C(=O)N[C@H](C(=O)N[C@H](C(=O)O)c4cc(O)cc(O)c4-c4cc3ccc4O)[C@H](O[C@H]3C[C@](C)(N)[C@@H](O)[C@H](C)O3)c3ccc(c(Cl)c3)Oc3cc2cc(c3O[C@@H]2O[C@H](CO)[C@@H](O)[C@H](O)[C@H]2O[C@H]2C[C@](C)(NCc3ccc(-c4ccc(Cl)cc4)cc3)[C@@H](O)[C@H](C)O2)Oc2ccc(cc2Cl)[C@H]1O [Oritavancin], the Bliss interaction score in assay [1] was 0.0311; in assay [2], 0.0219; in assay [3], 0.0771; in assay [4], 0.0463.

With `CC(=O)OC[C@H]1O[C@@H]([S-])[C@H](OC(C)=O)[C@@H](OC(C)=O)[C@@H]1OC(C)=O.CCP(CC)CC.[Au+]` [Auranofin] + CO/N=C(\C(=O)N[C@@H]1C(=O)N2C(C(=O)O)=C(COC(C)=O)CS[C@H]12)c1csc(N)n1 [Cefotaxime], the Bliss interaction score was -0.0473 in assay [1], 0.0539 in assay [2], 0.0713 in assay [3] and 0.0687 in assay [4].

Turning to `CC(=O)OC[C@H]1O[C@@H]([S-])[C@H](OC(C)=O)[C@@H](OC(C)=O)[C@@H]1OC(C)=O.CCP(CC)CC.[Au+]` [Auranofin] + CO/N=C(\C(=O)N[C@@H]1C(=O)N2C(C(=O)O)=C(COC(N)=O)CS[C@H]12)c1ccco1 [Cefuroxime], the Bliss interaction score was -0.0911 in assay [1], -0.239 in assay [2], 0.0517 in assay [3] and 0.0434 in assay [4].

Consider `CC(=O)OC[C@H]1O[C@@H]([S-])[C@H](OC(C)=O)[C@@H](OC(C)=O)[C@@H]1OC(C)=O.CCP(CC)CC.[Au+]` [Auranofin] + CO/N=C(\C(=O)N[C@@H]1C(=O)N2C(C(=O)[O-])=C(C[N+]3(C)CCCC3)CS[C@H]12)c1csc(N)n1 [Cefepime], for which the Bliss interaction score in assay [1] is 0.046; in assay [2], 0.0512; in assay [3] it was 0.0786; in assay [4], 0.114.

Turning to `CC(=O)OC[C@H]1O[C@@H]([S-])[C@H](OC(C)=O)[C@@H](OC(C)=O)[C@@H]1OC(C)=O.CCP(CC)CC.[Au+]` [Auranofin] + CO[C@@H]1[C@@H](OC(N)=O)[C@@H](O)[C@H](Oc2ccc3c(O)c(NC(=O)c4ccc(O)c(CC=C(C)C)c4)c(=O)oc3c2C)OC1(C)C [Novobiocin], the Bliss interaction score in assay [1] was -0.0665; in assay [2], -0.0224; in assay [3], 0.105; in assay [4], 0.0612.

Consider `CC(=O)OC[C@H]1O[C@@H]([S-])[C@H](OC(C)=O)[C@@H](OC(C)=O)[C@@H]1OC(C)=O.CCP(CC)CC.[Au+]` [Auranofin] + CO[C@@]12[C@H](COC(N)=O)C3=C(C(=O)C(C)=C(N)C3=O)N1C[C@@H]1N[C@@H]12 [MitomycinC], for which the Bliss interaction score in assay [1] was 0.0315; in assay [2] it was -0.0435; in assay [3], 0.0961; in assay [4], -0.126.

On to `CC(=O)OC[C@H]1O[C@@H]([S-])[C@H](OC(C)=O)[C@@H](OC(C)=O)[C@@H]1OC(C)=O.CCP(CC)CC.[Au+]` [Auranofin] + CO[C@H]1/C=C/O[C@@]2(C)Oc3c(C)c(O)c4c(O)c(c(/C=N/N5CCN(C)CC5)c(O)c4c3C2=O)NC(=O)/C(C)=C\C=C\[C@H](C)[C@H](O)[C@@H](C)[C@@H](O)[C@@H](C)[C@H](OC(C)=O)[C@@H]1C [Rifampicin], for which the Bliss interaction score in assay [1] is 0.081; in assay [2], 0.0331; in assay [3], 0.0123; in assay [4], 0.0685.

`CC(=O)OC[C@H]1O[C@@H]([S-])[C@H](OC(C)=O)[C@@H](OC(C)=O)[C@@H]1OC(C)=O.CCP(CC)CC.[Au+]` [Auranofin] + COc1c(N2C[C@@H]3CCCN[C@@H]3C2)c(F)cc2c(=O)c(C(=O)O)cn(C3CC3)c12 [Moxifloxacin]: the Bliss interaction score in assay [1] is 0.031; in assay [2] it was 0.0832; in assay [3], 0.105; in assay [4], -0.051.

Take `CC(=O)OC[C@H]1O[C@@H]([S-])[C@H](OC(C)=O)[C@@H](OC(C)=O)[C@@H]1OC(C)=O.CCP(CC)CC.[Au+]` [Auranofin] + COc1cc(Cc2cnc(N)nc2N)cc(OC)c1OC [Trimethoprim]: the Bliss interaction score in assay [1] was -0.0454; in assay [2], 0.0284; in assay [3], -0.0844; in assay [4] it was -0.0729.

On to `CC(=O)OC[C@H]1O[C@@H]([S-])[C@H](OC(C)=O)[C@@H](OC(C)=O)[C@@H]1OC(C)=O.CCP(CC)CC.[Au+]` [Auranofin] + COc1ccc(C[C@H](N)C(=O)N[C@H]2[C@@H](O)[C@H](n3cnc4c(N(C)C)ncnc43)O[C@@H]2CO)cc1 [Puromycin], for which the Bliss interaction score in assay [1] was -0.0523; in assay [2], -0.0538; in assay [3] it was -0.0752; in assay [4], -0.103.

Regarding `CC(=O)OC[C@H]1O[C@@H]([S-])[C@H](OC(C)=O)[C@@H](OC(C)=O)[C@@H]1OC(C)=O.CCP(CC)CC.[Au+]` [Auranofin] + COc1cccc2c1C(=O)c1c(O)c3c(c(O)c1C2=O)C[C@@](O)(C(=O)CO)C[C@@H]3O[C@H]1C[C@H](N)[C@H](O)[C@H](C)O1 [Doxorubicin], the Bliss interaction score in assay [1] is 0.0674; in assay [2] it was -0.0288; in assay [3], 0.112; in assay [4] it was -0.0943.
